Laboratory results as given in patent US8017633B2, “Roflumilast for the treatment of diabetes mellitus” (Nycomed GmbH, priority 2005, dated 2011).

System: C57BLKS db/db mice
Assay: 10 days study: fasting blood glucose and oral glucose tolerance in db/db mice
Format: in vivo, mouse
Settings: for Blood glucose (15 min after glucose application) / Blood glucose (before glucose application): fasted 24 h; for Blood glucose (15 min after glucose application): 15 min after oral 1 g/kg glucose; for Blood glucose (before glucose application): 1 h after dose
Procedure: Female C57BLKS db/db mice obtained from M&B A/S (8680 Ry, Denmark) were used in the studies at 10 to 11 weeks of age. Mice were housed 10 per cage and allowed free access to water and standard laboratory diet for rodents (chow 3433, Provimi Kliba SA, 4303 Kaiseraugst, Switzerland).
Mice were allowed to acclimate to the local animal facilities for 1 week and retro-orbital blood samples were obtained 3 to 7 days prior to the start of the study.
Mice were treated with vehicle, Roflumilast or Roflumilast-N-Oxide, respectively once daily in the morning. Roflumilast or Roflumilast-N-Oxide was suspended in 4% methocel and applied via oral gavage using oral feeding & dosing needles (outer diameter: 1.5 mm, TSE GmbH, 61350 Bad Homburg, Germany). A volume of 10 ml/kg body weight was administered for each dose.
10 days studies: Mice were treated with vehicle, Roflumilast or Roflumilast-N-Oxide once daily in the morning. On day 9, mice were fasted for 24 hours by removing standard diet for laboratory animals 1 hour after drug application. On day 10, one hour after administration of vehicle, Roflumilast or Roflumilast-N-Oxide glucose tolerance was assessed by oral application of 1 g/kg/10 ml glucose. Blood was sampled before and 15 minutes after glucose application and levels of glucose (accu-chek, Roche Diagnostics GmbH, 68298 Mannheim, Germany) were measured.

[1] = Roflumilast 1 mg/kg oral once daily 10 days
[2] = Roflumilast 10 mg/kg oral once daily 10 days

In the case of O=C(Nc1c(Cl)cncc1Cl)c1ccc(OC(F)F)c(OCC2CC2)c1 [Roflumilast, 3-cyclopropylmethoxy-4-difluoromethoxy-N-(3,5-dichloropyrid-4-yl)benzamide], the “Blood glucose (15 min after glucose application)” value [1] is reported as 507 mg/dL, the “Blood glucose (before glucose application)” value [1] is reported as 347 mg/dL and the “Blood glucose (15 min after glucose application)” value [2] is reported as 412 mg/dL. For the same compound, the “Blood glucose (before glucose application)” value [2] was 191 mg/dL, the “Effect on fasting blood glucose levels (summary in words)” value (db/db mice) was “reduce” and the “Effect on postprandial blood glucose levels (summary in words)” value (db/db mice) was “reduce”.
